In patent US6849632B2, “Heteroaryl alkyl piperazine derivatives” (CV Therapeutics, Inc., priority 2000, dated 2005):
pIC50: −log10 of the molar value. Like-named read-outs stand apart in the source and are kept apart here.

Columns and labels:
[1] = Metabolic stability, incubation with human liver S-9 fractions; format: in vitro ADME; conditions: for Liver S9 Stability Factor: % parent remaining after 30 min at 37 C with human liver S9, divided by average % ranolazine remaining (57%)
Protocol: Metabolic Stability: As a measure of metabolic stability the compounds of this invention were incubated with human liver S-9 microsomal fractions. After, 30 minutes at 37 C, the amount of parent drug remaining was determined using LC-mass spec. The response factors for each compound was determined by establishing a standard curve and using an internal standard during the analysis of the samples. An average of five experiments for percentage of ranolazine remaining at the 30 minute time point is 57%. The compounds of this invention were assayed as described in the protocol below and the percentage of parent remaining was divided by the average % of ranolazine remaining (57%) affording a metabolic stability factor. A compound with a stability number greater than 1.2 has a better stability than ranolazine in the liver S-9 assay. A compound with a stability number between 1.2 and 0.8 has an equivalent stability in the liver S-9 assay.
The purpose of this experiment is to compare the percentages remaining for compounds of this invention with the percentage remaining for ranolazine after 30 minutes of incubation with human liver S9 fractions.
The following reagents were used; Potassium phosphate, 0.5M pH 7.4 (incubation buffer), kept at room temperature; 0.05M MgCl^2 kept at 4° C.; β-Nicotinamide adenine dinucleotide phosphate, tetrasodium salt, reduced form (NADPH), 0.02M solution in water (˜16.6 mg/mL) from Sigma Lot #79H7044 prepared on day of use. 1 mM of ranolazine or Compounds 43, 45, 47, 52, 70, 74, 76, 78, and 80 in ACN further diluted to obtain 100 μM in 10% ACN; Human S9 stock: 20 mg/mL from Gentest.
Incubation mixtures were prepared as follows:
Combine all components with incubation buffer and re-pipette 200 μL/tube+25 μL of the compound being tested along with 25 μL of S-9.
After 5 min of pre-incubation at 37° C., at 0 and 30 min after starting the reaction, a 50 μl aliquot of the incubation mixture was removed and added to 100 μL of 9:1 acetonitrile:methanol containing the internal standard.
The mixture was centrifuged and a 100 μL aliquot of the supernatant was diluted in 1 mL of solvent C (0.1% Formic Acid in water). Then samples were analyzed for change between the ratio of compound to internal standard at time zero and 30 minutes by LC/MS (injected 10 μL).
Samples were analyzed for the starting compounds and potential metabolite/s by LC/MS using an internal standard and an ODS-C18 column with a flow rate of 0.25 ml/min.

[2] = system: mitochondrial fatty acid oxidation using palmitoyl CoA as substrate; test: Palmitoyl CoA oxidation in isolated rat heart mitochondria; format: biochemical; conditions: for Inhibition of mitochondrial fatty acid oxidation using palmitoyl CoA as substrate - % of Control, 100 μm (%): 100 μm compound, 15 min at 30° C.
Protocol: Rat heart mitochondria were isolated by the method of Nedergard and Cannon (Methods in Enzymol. 55, 3, 1979). Palmitoyl CoA oxidation—The Palmityl CoA oxidation was carried out in a total volume of 100 micro liters containing the following agents: 110 mM KCl, 33 mM Tris buffer at pH 8, 2 mM KPi, 2 mM MgCl2, 0.1 mM EDTA, 14.7 microM defatted BSA, 0.5 mM malic acid, 13 mM carnitine, 1 mM ADP, 52 micrograms of mitochondrial protein, and 16 microM 1-C14 palmitoyl CoA (Sp. Activity 60 mCi/mmole; 20 microCi/ml, using 5 microliters per assay). The compounds of this invention were added in a DMSO solution at the following concentrations: 100 microM, and 50 microM. In each assay, a DMSO control was used. After 15 min at 30° C., the enzymatic reaction was centrifuged (20,000 g for 1 min), and 70 microliters of the supernatant was added to an activated reverse phase silicic acid column (approximately 0.5 ml of silicic acid). The column was eluted with 2 ml of water, and 0.5 ml of the eluent was used for scintillation counting to determine the amount of C^14 trapped as C^14 bicarbonate ion.

[3] = Table 1, read-out: IC50 (μm), inhibition of mitochondrial fatty acid oxidation using palmitoyl CoA as substrate
[4] = Table IA, read-out: Effect on Palmitoyl CoA Oxidation (IC50)

Row | percentage of parent drug remaining at the 30 minute time point ([1]; human liver S-9, 30 minutes at 37 C, average of five experiments) [%] | Liver S9 Stability Factor [1] | pIC50 [2, 3] | pIC50 [2, 4] | Structure (SMILES) | Inhibition of mitochondrial fatty acid oxidation using palmitoyl CoA as substrate - % of Control, 100 μm (%) [2] [%]
1 | 57 |  |  |  | COc1ccccc1OCC(O)CN1CCN(CC(=O)Nc2c(C)cccc2C)CC1 (racemic) [ranolazine, (±)-N-(2,6-dimethylphenyl)-4-[2-hydroxy-3-(2-methoxyphenoxy)-propyl]-1-piperazineacetamide, reference compound] | 
2 |  | 0.6 |  |  | Cc1cccc(C)c1NC(=O)CN1CCN(CC(O)COc2nc3ccccc3s2)CC1 (centres unmarked) [Compound 43, 2-{4-[3-(benzothiazol-2-yloxy)-2-hydroxy-propyl]-piperazin-1-yl}-N-(2,6-dimethylphenyl)acetamide] | 21
3 |  | 0.8 | ~4.70 | 4.82 | Cc1nc2cc(OCC(O)CN3CCN(CC(=O)Nc4c(C)cccc4C)CC3)ccc2s1 (centres unmarked) [Compound 45, N-(2,6-dimethylphenyl)-2-{4-[2-hydroxy-3-(2-methyl-benzothiazol-5-yloxy)-propyl]-piperazin-1-yl}acetamide] | 87
4 |  | 1.1 | ~3.90 |  | Cc1cccc(C)c1NC(=O)CN1CCN(CC(O)COc2cccc3[nH]c(C(N)=O)cc23)CC1 (centres unmarked) [Compound 46, 4-(3-{4-[(2,6-dimethylphenylcarbamoyl)-methyl]-piperazin-1-yl}-2-hydroxypropoxy)-1H-indole-2-carboxylic acid amide] | 61
5 |  | 1.5 | ~3.90 |  | Cc1cccc(C)c1NC(=O)CN1CCN(CC(O)COc2ccc3ncsc3c2)CC1 (centres unmarked) [Compound 47, 2-{4-[3-(benzothiazol-6-yloxy)2-hydroxy-propyl]-piperazin-1-yl}-N-(2,6-dimethylphenyl)-acetamide] | 70
6 |  | 0.5 | ~6.00 | 6.15 | Cc1nc2cc(OCC(O)CN3C(C)CN(CC(=O)Nc4c(C)cccc4C)CC3C)ccc2s1 (stereo not drawn) [Compound 52, N-(2,6-dimethylphenyl)-2-{4-[2-hydroxy-3-(2-methyl-benzothiazol-5-yloxy)-propyl]-3,5-cis dimethyl-piperazine-1-yl}acetamide] | 95
7 |  | 0.1 |  |  | Cc1cccc(C)c1NC(=O)CN1CCN(CC(O)COc2cnc3ccccc3n2)CC1 (centres unmarked) [Compound 70, N-(2,6-dimethylphenyl)-2-{4-[2-hydroxy-3-(quinoxalin-2-yloxy)-propyl]-piperazin-1-yl}acetamide] | 
8 |  | 1.0 |  |  | Cc1cccc(C)c1NC(=O)CN1CCN(CC(O)COc2ccnc3ccccc23)CC1 (centres unmarked) [Compound 74, N-(2,6-dimethylphenyl)-2-{4-[2-hydroxy-3-(quinolin-4-yloxy)-propyl]-piperazin-1-yl}acetamide] | 12
9 |  | 0.8 |  |  | Cc1cccc(C)c1NC(=O)CN1CCN(CC(O)COc2cccc3cnccc23)CC1 (centres unmarked) [Compound 76, N-(2,6-dimethylphenyl)-2-{4-[2-hydroxy-3-(isoquinolin-5-yloxy)-propyl]-piperazin-1-yl}acetamide] | 26
10 |  | 0.6 |  |  | Cc1cccc(C)c1NC(=O)CN1CCN(CC(O)COc2ccc3ncccc3c2)CC1 (centres unmarked) [Compound 78, N-(2,6-dimethylphenyl)-2-{4-[2-hydroxy-3-(quinolin-6-yloxy)-propyl]-piperazin-1-yl}acetamide] | 42
11 |  | 0.5 |  |  | Cc1ccc2ccc(OCC(O)CN3CCN(CC(=O)Nc4c(C)cccc4C)CC3)cc2n1 (centres unmarked) [Compound 80, N-(2,6-dimethylphenyl)-2-{4-[2-hydroxy-3-(2-methyl-quinolin-7-yloxy)-propyl]-piperazin-1-yl}acetamide] | 22
